Experimental data published in article PMC11504387, “Synthesis and Biological Activity Assessment of 2-Styrylbenzothiazoles as Potential Multifunctional Therapeutic Agents” (Antioxidants, 2024).
Blank lines part the entries; values can stand above or below the compound they belong to.

Key:
PMNL = test: ROS production in PMA-stimulated PMNL; type: cell-based, human; conditions: 10 µM, mean ± SD
Method: After 10 min at 37 °C, PMA (0.1 μM) was added. The fluorescence emission at 530 nm was measured after excitation at 485 nm in a thermally controlled (37 °C) NOVOstar microplate reader (BMG Lab technologies GmbH, Offenburg, Germany). […] ROS generation was induced by phorbol-12-myristate-13-acetate (PMA), a widely recognized agent for stimulating ROS production in neutrophils and enhancing endogenous superoxide formation. Diphenyleneiodonium (DPI, 10 µM), a NADPH oxidase inhibitor, served as a positive control. Through this assay, we could assess the potential interaction of our compounds with intracellular ROS production and their capacity to act as radical scavengers within a relevant cellular context. Furthermore, the outcomes provided additional insights into their inhibitory mechanism and helped to determine whether they act directly or non-specifically, as there is evidence that an impact on the ROS levels in PMNL could be translated to modulation of 5-LO activity in the cellular environment. […] With those data in hand, together with 5-LO inhibition assay outcomes, a direct inhibition of the enzyme stands as the best fitting option regarding the mechanism of action of compounds BZTst4 and BZTst6. […] This phenomenon was not further explored because such investigation was beyond the scope of this work.

[1] = UV spectrophotometric analysis of compounds in solution; type: physicochemical; conditions: at ʎmax, Lambert–Beer equation
Method: The synthesized compounds were solubilised in DMSO and diluted in MeOH, and the absorbance of the 10 µg/mL solution was measured between 290–400 nm with a UV-Vis spectrophotometer (SHIMADZU UV-2600 240 V, 1 cm quartz cell at 1 nm intervals). The absorbance at wavelength λ is related to the transmittance T(λ) via the Equation (1): A(λ) = −Log[T(λ)](1) where T(λ) is the fraction of incident irradiance transmitted by the sample. […]
The molar extinction coefficient was calculated with the absorbance recorded at the ʎmax applying the Lambert–Beer equation.

[2] = In vitro filtering parameters of O/W sunscreen formulation on PMMA plates; conditions: 3% in O/W sunscreen formulation
Method: Synthesized compounds were incorporated at 3% concentration in a suitable oil-in-water (O/W) emulsion for cosmetic use as sunscreen.
INCI: Aqua, Glycerin, Xanthan Gum, Phenoxyethanol (and) Ethylhexylglycerin, Tribehenin PEG-20 Esters, Cetearyl Alcohol, Dicaprylyl Carbonate, PPG 26 Buteth-26 (and) PEG 40 Hydrogenated Castor Oil, C12-15 Alkyl Benzoate, Sodium hydroxide (sol. 10%).
A protocol previously reported by us was adopted. Briefly, 32.5 mg of each compound formulation was spread on the rough surface of 5 × 5 cm^2 PMMA plates in the form of small drops of approximately equal mass, in triplicate. The plates were placed in the dark for 15–30 min to allow the formation of a sun-stabilised standard layer and then inserted into the instrument and measured at five different points on each plate (UV transmittance range 290–400 nm). The blank was a plate coated with 32.5 mg glycerine, chosen for its non-fluorescence and UV transparency. In addition, in vitro SPF, UVAPF and ʎc values were calculated according to Equations (2)–(4) above. To evaluate the booster effect of selected synthesized compounds, they were incorporated at 3% concentration in an oil-in-water (O/W) sunscreen formulation with fixed SPF and UVAPf values (30 and 10, respectively).
Aiming to create compounds with diverse biological activities, the synthesized 2-styrylbenzothiazoles were examined for potential applications in sunscreens. Each candidate was incorporated into a standard cosmetic formulation at a concentration of 3% and subjected to photoprotective efficacy testing using the Diffey–Robson method. The formulation comprised an oil-in-water (O/W) emulsion suitable for sunscreen use, with each benzothiazole derivative being heat-solubilized in the oil phase and then dispersed into the emulsion using a turbo emulsifier. The mixture was then cooled, and the emulsion was spread onto polymethylmethacrylate (PMMA) plates before recording the transmittance spectra. The SPF value, UVA protection factor value (UVAPF), the […], and the critical wavelength (λc) were determined from the transmittance spectra using SPF calculator software and are presented in Table 3. These parameters are essential for evaluating the efficacy of potential sunscreen products.

[3] = Photostability of O/W emulsions under solar simulator; type: physicochemical; conditions: O/W emulsion on PMMA
Method: Oil-in-water (O/W) emulsions containing individual filters were spread on PMMA sheet and irradiated with a solar simulator by applying different doses of UVA equivalent to an erythema effective radiant exposure of 100 J/m^2. Photostability was assessed by analysing the spectral transmittance, before and after irradiation, of the sunscreen thin film, measured before and after exposure from 290 to 400 nm. The residual percentages of SPF in vitro (%SPFeff.) and UVAPF (%UVAPFeff.) were calculated according to Equations (6) and (7), respectively. When the %SPFeff. and %UVAPFeff. are greater than or equal to 80, according to current regulations, a filter can be considered photostable [37].
To evaluate the effectiveness and safety profile of a sunscreen formulation, it is necessary to provide data on its photostability. Photodegradation data can be obtained by recording the pre- and post-irradiation transmittance spectra of PMMA plates with finger-coat formulations exposed to a dose of UVA capable of causing erythema. This method, established by Garoli et al., is used to determine photostability. The sun protection layer’s transmission in the range of 290–400 nm is recorded before and after exposure to sunlight, following the protocol.
The residual percentages of SPF in vitro (%SPFeff.) and UVAPf (%UVAPfeff.) were calculated using Equations (6) and (7) and are listed in Table 4. A filter can be classified as photostable if the %SPFeff. is greater than or equal to 80, according to regulatory standards. %SPFeff. = in vitro SPFafter/in vitro SPFbefore × 100(6) %UVAPfeff. = UVAPfafter/UVAPfbefore × 100(7) where SPFafter and SPFbefore are the SPF values calculated from the software after and before solar irradiation, and UVAPfafter and UVAPfbefore are the UVAPf values calculated from the software after and before solar irradiation.

[4] = target: T1, 5-LO in A23187-stimulated human PMNL (Homo sapiens, UniProt P09917); test: 5-Lipoxygenase inhibition in a cell-based assay (PMNL); conditions: PMNL; 3 µM; % relative to vehicle (DMSO); read-out: 5-LO Residual Activity (PMNL)
T1 construct: Freshly isolated PMNL (1 × 10^6 cells/mL) in PBS buffer pH 7.4; endogenous in cells; host or cells: primary human PMNL (neutrophils) isolated from blood
T1 sequence (P09917 1-674): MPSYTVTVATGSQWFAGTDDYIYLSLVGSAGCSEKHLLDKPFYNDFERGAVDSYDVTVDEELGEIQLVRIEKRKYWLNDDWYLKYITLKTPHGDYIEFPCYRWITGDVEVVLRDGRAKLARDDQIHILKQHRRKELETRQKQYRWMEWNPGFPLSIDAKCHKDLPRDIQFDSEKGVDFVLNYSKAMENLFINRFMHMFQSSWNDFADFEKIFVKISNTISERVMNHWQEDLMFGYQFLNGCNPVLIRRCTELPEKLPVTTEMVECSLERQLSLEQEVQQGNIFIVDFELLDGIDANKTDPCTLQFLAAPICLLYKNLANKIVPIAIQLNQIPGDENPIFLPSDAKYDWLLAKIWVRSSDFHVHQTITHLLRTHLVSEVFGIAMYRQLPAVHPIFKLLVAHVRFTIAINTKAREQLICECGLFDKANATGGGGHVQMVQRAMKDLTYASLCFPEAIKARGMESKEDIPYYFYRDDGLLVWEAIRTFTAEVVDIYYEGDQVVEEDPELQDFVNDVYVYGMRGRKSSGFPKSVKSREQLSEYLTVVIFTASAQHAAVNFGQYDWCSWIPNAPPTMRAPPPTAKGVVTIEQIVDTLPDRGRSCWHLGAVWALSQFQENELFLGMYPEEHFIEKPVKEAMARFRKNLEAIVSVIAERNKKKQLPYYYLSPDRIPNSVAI
Method: Following blood density centrifugation and cell population separation, PMNL was recovered from the pellet after hypotonic lysis of erythrocytes. Freshly isolated PMNL (1 × 10^6 cells/mL) in PBS buffer pH 7.4 with glucose (1 mg/mL) and CaCl2 (1 mM) was pre-incubated with the test compounds for 10 min at 37 °C. Then, 5-lipoxygenase (5-LO) product formation was started by addition of 2.5 μM Ca^2+-ionophore A23187 plus 20 μM arachidonic acid. The reaction was stopped after 10 min at 37 °C with 1 mL of ice-cold methanol containing 200 ng PGB1 as internal standard. Major 5-LO products (LTB4, trans-LTB4, epi-trans-LTB4, and 5-HETE) were extracted by SPE using Sep-Pak C18 35 cc Vac Cartridges (Waters, Milford, MA, USA) and analysed by UPLC-MS/MS as described by Pein et al..

Human recombinant 5-LO = target: T2, Human recombinant 5-LO (Homo sapiens, UniProt P09917); test: 5-Lipoxygenase inhibition in a cell-free assay; type: biochemical; conditions: 3 µM; % relative to vehicle (DMSO); read-out: 5-LO Residual Activity (Cell-Free)
T2 construct: made in house
T2 sequence (P09917 1-674): T1 sequence (P09917 1-674)
Method: Human recombinant 5-LO was expressed and isolated as described before, and immediately used for activity assays after isolation. The 5-LO (0.5 µg, in 1 mL PBS pH 7.4 containing 1 mM EDTA) was pre-incubated with the test compounds for 10 min at 4 °C and pre-warmed for 30 s at 37 °C. 5-LO product formation was initiated by sequential addition of 1 mM CaCl2 and 20 μM arachidonic acid. After 10 min at 37 °C, the reaction was terminated by addition of 1 mL ice-cold methanol containing 200 ng PGB1 as internal standard. Formed 5-LO products (trans-LTB4, epi-trans-LTB4, and 5-HETE) were extracted using Sep-Pak C18 35 cc Vac Cartridges and analysed by UPLC-MS/MS as previously described.

[5] = system: human melanoma Colo38 cells; test: Cell growth inhibition assay, Colo38; type: cell-based; conditions: 24 h incubation; mean ± SD
Method: Cell growth inhibition analyses were performed on human melanoma Colo38 cells and skin HaCat keratinocytes. Human melanoma Colo38 cells were kindly given by Dr. Patrizio Giacomini (Laboratory of Immunology, Regina Elena Institute, Rome, Italy). HaCat cells were obtained from Istituto Zooprofilattico Sperimentale della Lombardia e dell’Emilia-Romagna, Brescia, Italy. Cells were seeded at 40,000 cells/mL and 25,000 cells/mL, respectively. Colo38 cells were maintained in RPMI 1640, supplemented with 10% foetal bovine serum (FBS), penicillin (100 Units/mL), and streptomycin (100 µg/mL). HaCat cells were maintained in DMEM, supplemented with 10% fatal bovine serum (FBS), penicillin (100 Units/mL), streptomycin (100 µg/mL) and glutamine (2 mM); the incubation was performed at 37 °C in a 5% CO2 atmosphere. Compounds were dissolved in DMSO to obtain 50 mM stock solutions and diluted before cell treatment in MeOH. The tested compounds were added at serial dilutions to the cell cultures (from 0.1 to 100 µM) and incubated for 24 h further. Cells were then harvested, suspended in physiological solution, and counted with a Z2 Coulter Counter (Coulter Electronics, Hialeah, FL, USA). The number of cells/mL and the IC50 values were determined when untreated cells were in the log phase of cell growth. Samples of vehicles and untreated cells were included in each plate. Cisplatin was used as positive control for the HaCat cells, while N1-(4-arylidene)-1H-(2-OH-4-N(Et)2-phenyl)-[d]imidazole-2-carbohydrazide was used as positive control for the Colo38 cell line.

Compound: c1ccc2c(c1)[I+]c1ccccc1-2 [DPI, Diphenyleneiodonium, reference compound]
ROS Production (% of Control) (PMNL): 16.44 ± 2.14 % of control

Compound: O=S(=O)(O)c1ccc2[nH]c(-c3ccccc3)nc2c1 [PBSA, 2-Phenyl-1H-Benzimidazole-5-Sulphonic Acid, reference compound]
Ɛ (molar extinction coefficient) [1]: 23,881.86 dm^3 mol^−1 cm^−1 | SPF [2]: 1.91 | UVA/UVB [2]: 0.67 | UVAPF [2]: 1.13 | ʎc (critical wavelength) [2]: 357 nm | %UVAPfeff. ([3]; residual UVAPF after solar irradiation): 100.00% | %SPFeff. ([3]; residual in vitro SPF after solar irradiation): 103.66%

remaining activity at 3 µM [4]: 31.3 ± 12.7% | remaining activity at 3 µM (Human recombinant 5-LO): 28.6 ± 7.38%
Compound: CC(c1cc2ccccc2s1)N(O)C(N)=O (centres unmarked) [Zileuton, zileuton, reference compound]

IC50 [5]: 700 ± 60 nM
Compound: N^1-(4-arylidene)-1H-(2-OH-4-N(Et)2-phenyl)-[d]imidazole-2-carbohydrazide [Cmp 13, reference compound]
